Molecular target: T1, recombinant human GST-SYK (Homo sapiens, UniProt P43405)
T1 construct: purchased Carna Biosciences 08-176
Test: Homogeneous Time-Resolved Fluorescence (HTRF) assay for the recombinant human Syk enzyme
Assay type: biochemical
Details: HTRF assay, recombinant human GST-SYK; IC50 given as class symbols; read-out: rhSYK Activity
How it was run: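 Phosphorylation of a biotinylated Syk substrate peptide (250 nM) was run for 45 min at room temperature with 25 μM ATP and 5 mM Mg. It followed a 10-min preincubation of GST-hSYK ([…]) with compound in 15 mM Tris-HCl pH 7.5, 2 mM DTT. Product was detected by time-resolved fluorescence using a europium anti-phosphotyrosine antibody plus SA-APC in EDTA-containing quench buffer.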

Structure (SMILES)	IC50 [nM]
Cc1cc(Nc2nccc(C(F)(F)F)n2)cc(-c2cncc(C(=O)NCC(O)CO)c2)c1 (stereo not drawn) [Example 15.90, N-(2,3-dihydroxypropyl)-5-(3-methyl-5-{[4-(trifluoromethyl)pyrimidin-2-yl]amino}phenyl)pyridine-3-carboxamide]	< 100
Cc1cc(Nc2nccc(C(F)(F)F)n2)cc(-c2ccc(C(=O)NS(C)(=O)=O)nc2)c1 [Example 16.1, N-(methylsulfonyl)-5-(3-methyl-5-{[4-(trifluoromethyl)pyrimidin-2-yl]amino}phenyl)pyridine-2-carboxamide]	< 100
Cc1cc(Nc2nccc(C(F)(F)F)n2)cc(-c2ccc(C(=O)NS(N)(=O)=O)nc2)c1 [Example 16.2]	< 100
Cc1cc(Nc2nccc(C(F)(F)F)n2)cc(-c2ccc(C(=O)N3CCOC3=O)nc2)c1 [Example 16.3, 3-{[5-(3-Methyl-5-{[4-(trifluoromethyl)pyrimidin-2-yl]amino}phenyl)pyridin-2-yl]carbonyl}-1,3-oxazolidin-2-one]	< 100
Cc1cc(Nc2nccc(C(F)(F)F)n2)cc(-c2ccc(C(=O)NCCO)nc2)c1 [Example 16.5, N-(2-hydroxyethyl)-5-(3-methyl-5-{[4-(trifluoromethyl)pyrimidin-2-yl]amino}phenyl)pyridine-2-carboxamide]	< 100
Cc1cc(Nc2nccc(C(F)(F)F)n2)cc(-c2ccc(C(=O)N(C)CCO)nc2)c1 [Example 16.6, N-(2-hydroxyethyl)-N-methyl-5-(3-methyl-5-{[4-(trifluoromethyl)pyrimidin-2-yl]amino}phenyl)pyridine-2-carboxamide]	< 100
Cc1cc(Nc2nccc(C(F)(F)F)n2)cc(-c2ccc(C(=O)NC(C)CO)nc2)c1 (stereo not drawn) [Example 16.7, N-(2-hydroxy-1-methylethyl)-5-(3-methyl-5-{[4-(trifluoromethyl)pyrimidin-2-yl]amino}phenyl)pyridine-2-carboxamide]	< 100
Cc1cc(Nc2nccc(C(F)(F)F)n2)cc(-c2ccc(C(=O)NC3(CO)CC3)nc2)c1 [Example 16.8, N-[1-(hydroxymethyl)cyclopropyl]-5-(3-methyl-5-{[4-(trifluoromethyl)pyrimidin-2-yl]amino}phenyl)pyridine-2-carboxamide]	100 to 1000
CCC(CO)NC(=O)c1ccc(-c2cc(C)cc(Nc3nccc(C(F)(F)F)n3)c2)cn1 (stereo not drawn) [Example 16.9, N-[1-(hydroxymethyl)propyl]-5-(3-methyl-5-{[4-(trifluoromethyl)pyrimidin-2-yl]amino}phenyl)pyridine-2-carboxamide]	100 to 1000
Cc1cc(Nc2nccc(C(F)(F)F)n2)cc(-c2ccc(C(=O)NCC(C)(C)O)nc2)c1 [Example 16.10, N-(2-hydroxy-2-methylpropyl)-5-(3-methyl-5-{[4-(trifluoromethyl)pyrimidin-2-yl]amino}phenyl)pyridine-2-carboxamide]	100 to 1000
Cc1cc(Nc2nccc(C(F)(F)F)n2)cc(-c2ccc(C(=O)NC(C)(C)CO)nc2)c1 [Example 16.11, N-(2-hydroxy-1,1-dimethylethyl)-5-(3-methyl-5-{[4-(trifluoromethyl)pyrimidin-2-yl]amino}phenyl)pyridine-2-carboxamide]	100 to 1000
Cc1cc(Nc2nccc(C(F)(F)F)n2)cc(-c2ccc(C(=O)N3CCN(C)CC3)nc2)c1 [Example 16.12, N-(3-methyl-5-{6-[(4-methylpiperazin-1-yl)carbonyl]pyridin-3-yl}phenyl)-4-(trifluoromethyl)pyrimidin-2-amine]	100 to 1000
Cc1cc(Nc2nccc(C(F)(F)F)n2)cc(-c2ccc(C(=O)NC(C)(CO)CO)nc2)c1 [Example 16.13, N-[2-hydroxy-1-(hydroxymethyl)-1-methylethyl]-5-(3-methyl-5-{[4-(trifluoromethyl)pyrimidin-2-yl]amino}phenyl)pyridine-2-carboxamide]	< 100
Cc1cc(Nc2nccc(C(F)(F)F)n2)cc(-c2ccc(C(=O)NCc3cnn(C)c3)nc2)c1 [Example 16.14, N-[(1-methyl-1H-pyrazol-4-yl)methyl]-5-(3-methyl-5-{[4-(trifluoromethyl)pyrimidin-2-yl]amino}phenyl)pyridine-2-carboxamide]	100 to 1000
Cc1cc(Nc2nccc(C(F)(F)F)n2)cc(-c2ccc(C(=O)NCc3cncn3C)nc2)c1 [Example 16.15, N-[(1-methyl-1H-imidazol-5-yl)methyl]-5-(3-methyl-5-{[4-(trifluoromethyl)pyrimidin-2-yl]amino}phenyl)pyridine-2-carboxamide]	100 to 1000
Cc1cc(Nc2nccc(C(F)(F)F)n2)cc(-c2ccc(C(=O)NCc3cn(C)cn3)nc2)c1 [Example 16.17, N-[(1-methyl-1H-imidazol-4-yl)methyl]-5-(3-methyl-5-{[4-(trifluoromethyl)pyrimidin-2-yl]amino}phenyl)pyridine-2-carboxamide]	100 to 1000

Other lines, results leading:

IC50 [nM]	Structure (SMILES)
100 to 1000	Cc1cc(Nc2nccc(C(F)(F)F)n2)cc(-c2ccnc(N3CCC(F)(F)CC3)c2)c1 [Example 15.70, N-{3-[2-(4,4-difluoropiperidin-1-yl)pyridin-4-yl]-5-methylphenyl}-4-(trifluoromethyl)pyrimidin-2-amine]
< 100	Cc1cc(Nc2nccc(C(F)(F)F)n2)cc(-c2ccnc(N3CC(C)NC(C)C3)c2)c1 (stereo not drawn) [Example 15.71, N-{3-[2-(3,5-dimethylpiperazin-1-yl)pyridin-4-yl]-5-methylphenyl}-4-(trifluoromethyl)pyrimidin-2-amine]
< 100	Cc1cc(Nc2nccc(C(F)(F)F)n2)cc(-c2ccnc(NCC(C)O)c2)c1 (stereo not drawn) [Example 15.72, 1-{[4-(3-methyl-5-{[4-(trifluoromethyl)pyrimidin-2-yl]amino}phenyl)pyridin-2-yl]amino}propan-2-ol]
< 100	Cc1cc(Nc2nccc(C(F)(F)F)n2)cc(-c2ccnc(N3CCC[C@H]3C(N)=O)c2)c1 [Example 15.73, 1-[4-(3-methyl-5-{[4-(trifluoromethyl)pyrimidin-2-yl]amino}phenyl)pyridin-2-yl]-L-prolinamide]
< 100	Cc1cc(Nc2nccc(C(F)(F)F)n2)cc(-c2ccnc(NC3CNC(=O)C3)c2)c1 (stereo not drawn) [Example 15.74, 4-{[4-(3-methyl-5-{[4-(trifluoromethyl)pyrimidin-2-yl]amino}phenyl)pyridin-2-yl]amino}pyrrolidin-2-one]
100 to 1000	CC(=O)N1CCCN(c2cc(-c3cc(C)cc(Nc4nccc(C(F)(F)F)n4)c3)ccn2)CC1 [Example 15.75, N-{3-[2-(4-acetyl-1,4-diazepan-1-yl)pyridin-4-yl]-5-methylphenyl}-4-(trifluoromethyl)pyrimidin-2-amine]
< 100	CCCN1CCCN(c2cc(-c3cc(C)cc(Nc4nccc(C(F)(F)F)n4)c3)ccn2)CC1 [Example 15.76, N-{3-methyl-5-[2-(4-propyl-1,4-diazepan-1-yl)pyridin-4-yl]phenyl}-4-(trifluoromethyl)pyrimidin-2-amine]
100 to 1000	COCC1CCN(c2cc(-c3cc(C)cc(Nc4nccc(C(F)(F)F)n4)c3)ccn2)C1 (stereo not drawn) [Example 15.77, N-(3-{2-[3-(methoxymethyl)pyrrolidin-1-yl]pyridin-4-yl}-5-methylphenyl)-4-(trifluoromethyl)pyrimidin-2-amine]
100 to 1000	CNC(=O)CCNc1cc(-c2cc(C)cc(Nc3nccc(C(F)(F)F)n3)c2)ccn1 [Example 15.78, N-methyl-N~3~-[4-(3-methyl-5-{[4-(trifluoromethyl)pyrimidin-2-yl]amino}phenyl)pyridin-2-yl]-beta-alaninamide]
1000 to 10000	CCCOC1CCCN(c2cc(-c3cc(C)cc(Nc4nccc(C(F)(F)F)n4)c3)ccn2)C1 (stereo not drawn) [Example 15.79, N-{3-methyl-5-[2-(3-propoxypiperidin-1-yl)pyridin-4-yl]phenyl}-4-(trifluoromethyl)pyrimidin-2-amine]
100 to 1000	CC(=O)NCCCNc1cc(-c2cc(C)cc(Nc3nccc(C(F)(F)F)n3)c2)ccn1 [Example 15.80, N-(3-{[4-(3-methyl-5-{[4-(trifluoromethyl)pyrimidin-2-yl]amino}phenyl)pyridin-2-yl]amino}propyl)acetamide]
100 to 1000	Cc1cc(Nc2nccc(C(F)(F)F)n2)cc(-c2ccnc(NCC(=O)N(C)C)c2)c1 [Example 15.82, N,N-dimethyl-N~2~-[4-(3-methyl-5-{[4-(trifluoromethyl)pyrimidin-2-yl]amino}phenyl)pyridin-2-yl]glycinamide]
< 100	Cc1cc(Nc2nccc(C(F)(F)F)n2)cc(-c2ccnc(NCC3CCC(=O)N3)c2)c1 (stereo not drawn) [Example 15.83, 5-({[4-(3-methyl-5-{[4-(trifluoromethyl)pyrimidin-2-yl]amino}phenyl)pyridin-2-yl]amino}methyl)pyrrolidin-2-one]
1000 to 10000	Cc1cc(Nc2nccc(C(F)(F)F)n2)cc(-c2ccnc(N3CC4CNC(CO)C4C3)c2)c1 (stereo not drawn) [Example 15.84, {5-[4-(3-methyl-5-{[4-(trifluoromethyl)pyrimidin-2-yl]amino}phenyl)pyridin-2-yl]octahydropyrrolo[3,4-c]pyrrol-1-yl}methanol]
< 100	Cc1cc(Nc2nccc(C(F)(F)F)n2)cc(-c2ccnc(N3CC(C)NC(C)C3)c2)c1 (stereo not drawn) [Example 15.85, N-{3-[2-(3,5-dimethylpiperazin-1-yl)pyridin-4-yl]-5-methylphenyl}-4-(trifluoromethyl)pyrimidin-2-amine]
< 100	Cc1cc(Nc2nccc(C(F)(F)F)n2)cc(-c2ccnc(N3CCC(C(=O)O)CC3)c2)c1 [Example 15.87, 1-[4-(3-methyl-5-{[4-(trifluoromethyl)pyrimidin-2-yl]amino}phenyl)pyridin-2-yl]piperidine-4-carboxylic acid]
< 100	Cc1cc(Nc2nccc(C(F)(F)F)n2)cc(-c2ccc(C(=O)N3CCNC(=O)C3)nc2)c1 [Example 16.4, 4-{[5-(3-Methyl-5-{[4-(trifluoromethyl)pyrimidin-2-yl]amino}phenyl)pyridin-2-yl]carbonyl}piperazin-2-one]
